Measurements as given in patent publication US6689773B2, “Uracil substituted phenyl sulfamoyl carboxamides” (BASF Aktiengesellschaft, priority 2000, dated 2004).

Assays:
Format in all cases: in vivo
[1] = system: CHEAL, Lambsquarters, Chenopodium album, L. Common; assay: Preemergence herbicidal evaluation (Example 148); details: rating scale 0-9, two to four weeks after treatment
Procedure, shortened: (§1)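 Test compound was applied in aqueous acetone to freshly planted cups at an equivalent of about 0.125 to 0.250 kg/ha, before emergence. Ratings, taken after two to four weeks of greenhouse growth, were averaged where a compound was tested more than once.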

[2] = system: ABUTH, Velvetleaf, Abutilon theophrasti, Medic.; assay: Preemergence herbicidal evaluation (Example 148); details: rating scale 0-9, two to four weeks after treatment
Procedure, shortened: as §1

[3] = system: ECHCG, Barnyardgrass, Echinochloa crusgalli, (L.)Beau; assay: Preemergence herbicidal evaluation (Example 148); details: rating scale 0-9, two to four weeks after treatment
Procedure, shortened: as §1

[4] = system: AMBEL, Ragweed, Common, Ambrosia artemiisifolia, L.; assay: Preemergence herbicidal evaluation (Example 148); details: rating scale 0-9, two to four weeks after treatment
Procedure, shortened: as §1

[5] = system: IPOHE, Morningglory, Ivyleaf, Ipomoea hederacea, (L)Jacq.; assay: Preemergence herbicidal evaluation (Example 148); details: rating scale 0-9, two to four weeks after treatment
Procedure, shortened: as §1

[6] = system: GLXMA, Soybean, Glycine max, (L.) Merr.; assay: Preemergence herbicidal evaluation (Example 148); details: rating scale 0-9, two to four weeks after treatment
Procedure, shortened: as §1

[7] = system: DIGSA, Crabgrass, (Hairy) L, Digitaria sanguinalis, (L)Scop; assay: Preemergence herbicidal evaluation (Example 148); details: rating scale 0-9, two to four weeks after treatment
Procedure, shortened: as §1

[8] = system: XANST, Cocklebur, Xanthium strumariam; assay: Preemergence herbicidal evaluation (Example 148); details: rating scale 0-9, two to four weeks after treatment
Procedure, shortened: as §1

[9] = system: SETVI, Green foxtail, Setaria viridis, (L.)Beau; assay: Preemergence herbicidal evaluation (Example 148); details: rating scale 0-9, two to four weeks after treatment
Procedure, shortened: as §1

[10] = system: TRZAW, Winter wheat, Tritium Aestivum, L. (Winter); assay: Preemergence herbicidal evaluation (Example 148); details: rating scale 0-9, two to four weeks after treatment
Procedure, shortened: as §1

[11] = system: ALOMY, Blackgrass, Alopecurus myosuroides; assay: Preemergence herbicidal evaluation (Example 148); details: rating scale 0-9, two to four weeks after treatment
Procedure, shortened: as §1

[12] = system: ZEAMX, Field corn, Zea mays L.; assay: Preemergence herbicidal evaluation (Example 148); details: rating scale 0-9, two to four weeks after treatment
Procedure, shortened: as §1

[13] = system: CHEAL, Lambsquarters, Chenopodium album, L. Common; assay: Postemergence herbicidal evaluation (Example 147); details: rating scale 0-9, two to three weeks after treatment
Procedure, shortened: (§2)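 About two-week-old seedlings were sprayed postemergence at roughly 0.016–0.032 kg/ha in 80/20 acetone/water with 1.0% methylated seed oil. After two to three weeks in the greenhouse, injury was rated visually on a 0–9 scale against controls, and repeat tests were averaged.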

[14] = system: ABUTH, Velvetleaf, Abutilon theophrasti, Medic.; assay: Postemergence herbicidal evaluation (Example 147); details: rating scale 0-9, two to three weeks after treatment
Procedure, shortened: as §2

[15] = system: ECHCG, Barnyardgrass, Echinochloa crusgalli, (L.)Beau; assay: Postemergence herbicidal evaluation (Example 147); details: rating scale 0-9, two to three weeks after treatment
Procedure, shortened: as §2

[16] = system: AMBEL, Ragweed, Common, Ambrosia artemiisifolia, L.; assay: Postemergence herbicidal evaluation (Example 147); details: rating scale 0-9, two to three weeks after treatment
Procedure, shortened: as §2

[17] = system: IPOHE, Morningglory, Ivyleaf, Ipomoea hederacea, (L)Jacq.; assay: Postemergence herbicidal evaluation (Example 147); details: rating scale 0-9, two to three weeks after treatment
Procedure, shortened: as §2

[18] = system: GLXMA, Soybean, Glycine max, (L.) Merr.; assay: Postemergence herbicidal evaluation (Example 147); details: rating scale 0-9, two to three weeks after treatment
Procedure, shortened: as §2

[19] = system: DIGSA, Crabgrass, (Hairy) L, Digitaria sanguinalis, (L)Scop; assay: Postemergence herbicidal evaluation (Example 147); details: rating scale 0-9, two to three weeks after treatment
Procedure, shortened: as §2

[20] = system: XANST, Cocklebur, Xanthium strumariam; assay: Postemergence herbicidal evaluation (Example 147); details: rating scale 0-9, two to three weeks after treatment
Procedure, shortened: as §2

[21] = system: SETVI, Green foxtail, Setaria viridis, (L.)Beau; assay: Postemergence herbicidal evaluation (Example 147); details: rating scale 0-9, two to three weeks after treatment
Procedure, shortened: as §2

[22] = system: TRZAW, Winter wheat, Tritium Aestivum, L. (Winter); assay: Postemergence herbicidal evaluation (Example 147); details: rating scale 0-9, two to three weeks after treatment
Procedure, shortened: as §2

[23] = system: ALOMY, Blackgrass, Alopecurus myosuroides; assay: Postemergence herbicidal evaluation (Example 147); details: rating scale 0-9, two to three weeks after treatment
Procedure, shortened: as §2

[24] = system: ZEAMX, Field corn, Zea mays L.; assay: Postemergence herbicidal evaluation (Example 147); details: rating scale 0-9, two to three weeks after treatment
Procedure, shortened: as §2

SMILES: CCC(C)N(C)S(=O)(=O)NC(=O)c1cc(-n2c(=O)cc(C(F)(F)F)n(C)c2=O)c(F)cc1Cl (stereo not drawn) [Example 69]
- Preemergence herbicidal rating CHEAL ([1]; rate 0.125 kg/ha): 9.0
- Preemergence herbicidal rating CHEAL ([1]; rate 0.25 kg/ha): 9.0
- Preemergence herbicidal rating ABUTH ([2]; rate 0.125 kg/ha): 9.0
- Preemergence herbicidal rating ABUTH ([2]; rate 0.25 kg/ha): 9.0
- Preemergence herbicidal rating ECHCG ([3]; rate 0.125 kg/ha): 2.0
- Preemergence herbicidal rating ECHCG ([3]; rate 0.25 kg/ha): 3.0
- Preemergence herbicidal rating AMBEL ([4]; rate 0.125 kg/ha): 8.0
- Preemergence herbicidal rating AMBEL ([4]; rate 0.25 kg/ha): 9.0
- Preemergence herbicidal rating IPOHE ([5]; rate 0.125 kg/ha): 9.0
- Preemergence herbicidal rating IPOHE ([5]; rate 0.25 kg/ha): 9.0
- Preemergence herbicidal rating GLXMA ([6]; rate 0.125 kg/ha): 0.0
- Preemergence herbicidal rating GLXMA ([6]; rate 0.25 kg/ha): 3.0
- Preemergence herbicidal rating DIGSA ([7]; rate 0.125 kg/ha): 3.0
- Preemergence herbicidal rating DIGSA ([7]; rate 0.25 kg/ha): 3.0
- Preemergence herbicidal rating XANST ([8]; rate 0.125 kg/ha): 3.0
- Preemergence herbicidal rating XANST ([8]; rate 0.25 kg/ha): 4.0
- Preemergence herbicidal rating SETVI ([9]; rate 0.125 kg/ha): 0.0
- Preemergence herbicidal rating SETVI ([9]; rate 0.25 kg/ha): 1.0
- Preemergence herbicidal rating TRZAW ([10]; rate 0.125 kg/ha): 0.0
- Preemergence herbicidal rating TRZAW ([10]; rate 0.25 kg/ha): 0.0
- Preemergence herbicidal rating ALMOY ([11]; rate 0.125 kg/ha): 0.0
- Preemergence herbicidal rating ALMOY ([11]; rate 0.25 kg/ha): 0.0
- Preemergence herbicidal rating ZEAMX ([12]; rate 0.125 kg/ha): 2.0
- Preemergence herbicidal rating ZEAMX ([12]; rate 0.25 kg/ha): 3.0
- Postemergence herbicidal rating CHEAL ([13]; rate 0.016 kg/ha): 8.0
- Postemergence herbicidal rating CHEAL ([13]; rate 0.032 kg/ha): 8.0
- Postemergence herbicidal rating ABUTH ([14]; rate 0.016 kg/ha): 9.0
- Postemergence herbicidal rating ABUTH ([14]; rate 0.032 kg/ha): 9.0
- Postemergence herbicidal rating ECHCG ([15]; rate 0.016 kg/ha): 5.0
- Postemergence herbicidal rating ECHCG ([15]; rate 0.032 kg/ha): 7.0
- Postemergence herbicidal rating AMBEL ([16]; rate 0.016 kg/ha): 9.0
- Postemergence herbicidal rating AMBEL ([16]; rate 0.032 kg/ha): 9.0
- Postemergence herbicidal rating IPOHE ([17]; rate 0.016 kg/ha): 9.0
- Postemergence herbicidal rating IPOHE ([17]; rate 0.032 kg/ha): 9.0
- Postemergence herbicidal rating GLXMA ([18]; rate 0.016 kg/ha): 8.0
- Postemergence herbicidal rating GLXMA ([18]; rate 0.032 kg/ha): 8.0
- Postemergence herbicidal rating DIGSA ([19]; rate 0.016 kg/ha): 4.0
- Postemergence herbicidal rating DIGSA ([19]; rate 0.032 kg/ha): 6.0
- Postemergence herbicidal rating XANST ([20]; rate 0.016 kg/ha): 9.0
- Postemergence herbicidal rating XANST ([20]; rate 0.032 kg/ha): 9.0
- Postemergence herbicidal rating SETVI ([21]; rate 0.016 kg/ha): 5.0
- Postemergence herbicidal rating SETVI ([21]; rate 0.032 kg/ha): 6.0
- Postemergence herbicidal rating TRZAW ([22]; rate 0.016 kg/ha): 5.0
- Postemergence herbicidal rating TRZAW ([22]; rate 0.032 kg/ha): 6.5
- Postemergence herbicidal rating ALMOY ([23]; rate 0.016 kg/ha): 1.0
- Postemergence herbicidal rating ALMOY ([23]; rate 0.032 kg/ha): 2.0
- Postemergence herbicidal rating ZEAMX ([24]; rate 0.016 kg/ha): 7.0
- Postemergence herbicidal rating ZEAMX ([24]; rate 0.032 kg/ha): 7.5
